Results published in article PMC10970924 (Life, 2024).
Read-outs that look alike come from different tables or passages of the source.

Assays:
PC-3 cells = conditions: for Olive Moment / Tail Area / Tail DNA % / Tail Intensity / Tail Length / Tail Moment: 3 days; for DNA breaks in the Comet assay (in words): PC-3, 72 h
Experimental: PC-3 and MCF-7 cells were seeded into 6-well plates at a concentration of 15,000 cells/mL. […] Cells were trypsinized and washed, then placed in 0.7% low melting point agarose and mounted on glass slides (200 000 cells/sample). Slides were treated with lysis solution (2.5 M NaCl, 0.1 M disodium EDTA, 1% Triton X-100, 10 mM Tris base, 10% DMSO, pH 10) for 1 h at 4 °C. Next, the samples were placed in an alkaline solution (12 g of NaOH brought to 1 L with water, disodium EDTA 0.2 M, pH >13) and incubated for 30 min at room temperature. Afterward, the slides were washed with electrophoresis 1X TBE buffer (10X TBE: 9.3 g disodium salt EDTA, 108 g Tris base, and 55 g boric acid per 1 L of water) twice and placed in the electrophoresis chamber. Electrophoresis was carried out under neutral conditions in 1X TBE buffer for 30 min at 31 V (at the rate of 1 V/cm). Afterward, the slides were washed in PBS (Ca free, Mg free) 2 times for 5 min, fixed in 96% ethanol for 5 min, and dried. Before analysis, 50 μL of SYBR Green solution (1μL stock + 10 mL TE buffer) was applied to the slides. Using an Observer Z1 fluorescent optical microscope (Carl Zeiss, Jena, Germany), photographs of cells were taken and analyzed in the ImageJ program (Plugin OpenComet).
“Tail moment” (TM) and “Olive moment” (OTM) were calculated using the following formula:(1) TM=(Fluor in tail/Fluor total )×tail lenght (2) OTM=(Tail mean−Head mean)×(Tail DNA %)/100.

PC-3 = assay: Colony formation assay; type: cell-based; conditions: Homo sapiens, PC-3, 72 h, read-out: Inhibitory concentration IC50, PC-3
Experimental: (§1) Cells were cultured in a 24-well plate with 1 mL of DMEM nutrient medium for 24 h. […] The experiment was conducted in triplicate and in two or three independent repetitions. Only solvent was added to the control wells instead of the test compounds. Incubation with the drugs continued for three days, after which the grown colonies were washed with cold PBS solution and fixed in a fixing buffer (10% acetic acid, 10% methanol in distilled water) for 15 min. The colonies were stained with a 0.4% solution of crystal violet in 20% ethanol for 30 min and then washed 3 times with dH2O and analyzed under a microscope. The colonies were then dissolved in 10% acetic acid for 40 min on a shaker, and the absorbance of the lysate was read at 590 nm. Results were expressed as a percentage relative to the control, and a dose–response curve was plotted to determine the IC50 value.

HCT-116 [1] = assay: Colony formation assay; type: cell-based; conditions: Homo sapiens, HCT-116, 72 h, read-out: Inhibitory concentration IC50, HCT-116
Experimental: as §1

MCF-7 = assay: Colony formation assay; type: cell-based; conditions: Homo sapiens, MCF7, 72 h, read-out: Inhibitory concentration IC50, MCF-7
Experimental: as §1

HCT-116 [2] = assay: Mitochondrial membrane potential, rhodamine 123 flow cytometry; type: cell-based, human; conditions: tumor cells (HCT-116 in Figure 4a), 72 h, IC50 or higher
Experimental: Cells were seeded in a 12-well plate at a density of 1 × 10^5 cells/well and incubated for 24 h at 37 °C in a humid atmosphere with 5% CO2 prior to treatment. Cells were bathed in complete DMEM media containing the respective compounds, using a solvent (dH2O/DMSO) as a negative control. After 72 h, the nutrient medium over cells containing the floating cells was collected into tubes, and then the adherent cells were trypsinized and added to the fraction of floating cells. Cell suspensions were then centrifuged, and the pellet was suspended in phosphate-buffered saline (PBS) to a final density of 5 × 10^5 cells/mL. Cell suspension in a volume of 250 μL and 500 nM rhodamine 123 were added to a rounded-well plate, followed by incubation for 30 min at 25° C. Measurements were conducted using flow cytometry on the Millipore Guava EasyCyte HT Flow Cytometer System in a green fluorescent channel.

[3] = Neutralization of the ABTS radical; conditions: for EC50: 37 °C, 15 min, 738 nm, read-out: EC50 of half-maximal ABTS radical inhibition; for Trolox Equivalent Antioxidant Capacity (TEAC): ABTS radical neutralization, relative to Trolox
Experimental: Initially, an ABTS solution was prepared in water at a concentration of 7 mM. Subsequently, the radical cation ABTS^•+ was generated by mixing the original ABTS solution with 2.45 mM ammonium persulfate at a 1:1 ratio. This mixture was then allowed to stand in the dark at room temperature for 12–16 h before use. The diluted ABTS^•+ solution was prepared in a methanol/water mixture (1:1) reaching an optical density of 0.7 units at 738 nm (~0.7 mM). Next, various concentrations of compounds (ranging from 1000, 500, 250, 125, 62.5, 31.2, 15.6, to 7.8 μM) in a volume of 130 µL in a methanol/water mixture (1:1) were mixed with the ABTS radical cation solution (~0.7 mM) in a volume of 130 µL. The mixture was then incubated at 37 °C in a water bath for 15 min. The optical density was measured at 738 nm using the Infinite M200 PRO (TECAN, Zürich, Switzerland) plate reader. The percentage inhibition of ABTS absorption relative to the control was calculated. A percent inhibition vs. antioxidant concentration graph was plotted and the concentration of the antioxidant that suppresses the optical density of the ABTS radical by 50% (EC50) was determined. The Trolox Equivalent Antioxidant Capacity (TEAC) was also calculated.

MCF-7 cells = assay: Cell cycle analysis, Hoechst 33342 flow cytometry; type: cell-based, human; conditions: MCF-7, 72 h
Experimental: MCF-7 cells were seeded at a density of 15,000 cells/mL in a 6-well plate in 3 mL of complete medium. After 24 h, the medium was replaced with one containing the studied compounds and incubated for 72 h. After incubation, cells were stained with Hoechst 33342 (Roche, Basel, Switzerland) at a concentration of 6 μg/mL for 30 min in the CO2 incubator. The nutrient medium over cells containing the floating cells was collected into tubes, and then the remaining adherent cells were trypsinized and added to the tubes with the floating cells. After this, cells were centrifuged and washed with a DPBS buffer. The fluorescence intensity of cells was measured using the flow cytofluorimeter BD FACSCalibur™ (BD Biosciences, Franklin Lakes, NJ, USA). To identify single cells, direct scatter (FS) and side scatter (SS) measurements were used, and cell doublets were excluded from the analysis using pulse processing based on the area-to-pulse width ratio.

[4] = colony formation assay, incubation three days

COc1cccc2c1C(=O)c1c(O)c3c(c(O)c1C2=O)CC(O)(C(=O)CO)CC3OC1CC(NC(=O)c2cnc(C)c3c2COC(C)(C)O3)C(O)C(C)O1 (stereo not drawn) [DOX-1, N-(3-hydroxy-2-methyl-6-((3,5,12-trihydroxy-3-(2-hydroxyacetyl)-10-methoxy-6,11-dioxo-1,2,3,4,6,11-hexahydrotetracen-1-yl)oxy)tetrahydro-2H-pyran-4-yl)-2,2,8-trimethyl-4H-[1,3]dioxino[4,5-c]pyridine-5-carboxamide]
melting point: 165 to 167 °C (dec.) | Olive Moment (PC-3 cells; PC-3, 3 µM (IC25)): 2.48 | Tail Area (PC-3 cells; PC-3, 3 µM (IC25)): 1094 | Tail DNA % (PC-3 cells; PC-3, 3 µM (IC25)): 6.7% | Tail Intensity (PC-3 cells; PC-3, 3 µM (IC25)): 34 | Tail Length (PC-3 cells; PC-3, 3 µM (IC25)): 10 | Tail Moment (PC-3 cells; PC-3, 3 µM (IC25)): 1.07 | Olive Moment (PC-3 cells; PC-3, 6.1 µM (IC50)): 2.24 | Tail Area (PC-3 cells; PC-3, 6.1 µM (IC50)): 1196 | Tail DNA % (PC-3 cells; PC-3, 6.1 µM (IC50)): 6.7% | Tail Intensity (PC-3 cells; PC-3, 6.1 µM (IC50)): 30 | Tail Length (PC-3 cells; PC-3, 6.1 µM (IC50)): 17 | Tail Moment (PC-3 cells; PC-3, 6.1 µM (IC50)): 1.36 | Olive Moment (PC-3 cells; PC-3, 11.3 µM (IC70)): 3.79 | Tail Area (PC-3 cells; PC-3, 11.3 µM (IC70)): 1403 | Tail DNA % (PC-3 cells; PC-3, 11.3 µM (IC70)): 11.4% | Tail Intensity (PC-3 cells; PC-3, 11.3 µM (IC70)): 37 | Tail Length (PC-3 cells; PC-3, 11.3 µM (IC70)): 12 | Tail Moment (PC-3 cells; PC-3, 11.3 µM (IC70)): 1.87 | DNA breaks in the Comet assay (in words) (PC-3 cells): do not cause DNA breaks | IC50 (PC-3): 3200 ± 310 nM | IC50 (HCT-116 [1]): 4420 ± 3020 nM | IC50 (MCF-7): 870 ± 120 nM | Effect on mitochondrial potential ΔΨ (in words) (HCT-116 [2]): significant number of cells with reduced mitochondrial potential | EC50 [3]: 4500 ± 500 nM | Trolox Equivalent Antioxidant Capacity (TEAC) [3]: 3.49

COc1cccc2c1C(=O)c1c(O)c3c(c(O)c1C2=O)CC(O)(C(=O)CO)CC3OC1CC(NC(=O)/C=C/c2cnc(C)c3c2COC(C)(C)O3)C(O)C(C)O1 (stereo not drawn) [DOX-2, (E)-N-(3-hydroxy-2-methyl-6-((3,5,12-trihydroxy-3-(2-hydroxyacetyl)-10-methoxy-6,11-dioxo-1,2,3,4,6,11-hexahydrotetracen-1-yl)oxy)tetrahydro-2H-pyran-4-yl)-3-(2,2,8-trimethyl-4H-[1,3]dioxino[4,5-c]pyridin-5-yl)acrylamide]
melting point: 175 to 176 °C (dec.) | Effect on the cell cycle (in words) (MCF-7 cells): cell-cycle arrest in the G2M phase | IC50 (PC-3): 1660 ± 820 nM | IC50 (HCT-116 [1]): 910 ± 390 nM | IC50 (MCF-7): 1630 ± 40 nM | EC50 [3]: 18900 ± 6800 nM | Trolox Equivalent Antioxidant Capacity (TEAC) [3]: 0.83

COc1cccc2c1C(=O)c1c(O)c3c(c(O)c1C2=O)C[C@@](O)(C(=O)CO)C[C@@H]3O[C@H]1C[C@H](N)[C@H](O)[C@H](C)O1 [DOX, Doxorubicin, reference compound]
Olive Moment (PC-3 cells; PC-3, 0.5 µM (IC25)): 8.13 | Tail Area (PC-3 cells; PC-3, 0.5 µM (IC25)): 2215 | Tail DNA % (PC-3 cells; PC-3, 0.5 µM (IC25)): 22.7% | Tail Intensity (PC-3 cells; PC-3, 0.5 µM (IC25)): 66 | Tail Length (PC-3 cells; PC-3, 0.5 µM (IC25)): 51 | Olive Moment (PC-3 cells; PC-3, 1.1 µM (IC50)): 11.64 | Tail Area (PC-3 cells; PC-3, 1.1 µM (IC50)): 1902 | Tail DNA % (PC-3 cells; PC-3, 1.1 µM (IC50)): 35.2% | Tail Intensity (PC-3 cells; PC-3, 1.1 µM (IC50)): 74 | Tail Length (PC-3 cells; PC-3, 1.1 µM (IC50)): 51 | DNA breaks in the Comet assay (in words) (PC-3 cells): induces DNA breaks | Effect on the cell cycle (in words) (MCF-7 cells): cell-cycle arrest in the G2M phase | IC50 (PC-3; [4]): 1170 ± 480 nM | IC50 (HCT-116 [1]; [4]): 620 ± 140 nM | IC50 (MCF-7; [4]): 60 ± 3 nM | Effect on mitochondrial potential ΔΨ (in words) (HCT-116 [2]): significant number of cells with reduced mitochondrial potential | EC50 [3]: 6700 ± 700 nM | Trolox Equivalent Antioxidant Capacity (TEAC) [3]: 2.34
